# Laboratory results as given in article PMC12677699, “Utilizing Proteolytic‐Resistant Nano‐Short Peptide Based on Naphthyl Tail‐Anchored to Combat Bacterial Infections” (Advanced Science, 2025).
# Non-standard residues stand in square brackets, D forms with d. Residues, ends and D or L forms follow the SMILES beside them. ξ: configuration not given here. *: point of attachment. 1Naphthoyl = O=C(c1cccc2ccccc12)*; Palmitoyl = CCCCCCCCCCCCCCCC(=O)*; Myristoyl = CCCCCCCCCCCCCC(=O)*; Lauroyl = CCCCCCCCCCCC(=O)*; Decanoyl = CCCCCCCCCC(=O)*; ξAhp(2) = CCCCCC(N)C(=O)O
# Key:
# S. epidermidis 12228 = format: cell-based, Staphylococcus epidermidis
# Method: (§1) The MIC values of the nano‐short peptides were determined according to standard protocols.^[ [63] ^] Bacterial strains were revived from cryopreservation and cultured in Mueller–Hinton broth (MHB) to logarithmic growth phase, then diluted to a final density of 0.5–1 × 10⁶ CFU mL^−1. Serial dilutions of the nano‐short peptides were prepared in 0.2% bovine serum albumin (BSA) using a 96‐well plate format. Equal volumes of peptide solutions and bacterial suspensions were combined and incubated at 37 °C for 20–22 h. Bacterial growth was assessed by measuring absorbance at 492 nm, with MHB alone (negative control) and untreated bacterial suspension (positive control) included for reference.
# P. aeruginosa 27853 = format: cell-based, Pseudomonas aeruginosa
# Method: as §1
# P. aeruginosa PAO1 = format: cell-based, Pseudomonas aeruginosa
# Method: as §1
# MRSA 43300 = format: cell-based, Methicillin-Resistant Staphylococcus aureus
# Method: as §1
# S. typhimurium 14028 = format: cell-based, Salmonella typhimurium
# Method: as §1
# S. typhimurium 7731 = format: cell-based, Salmonella typhimurium
# Method: as §1
# E. coli 078 = format: cell-based, Escherichia coli
# Method: as §1
# E. coli UB1005 = format: cell-based, Escherichia coli
# Method: as §1
# E. coli 25922 = format: cell-based, Escherichia coli
# Method: as §1
# S. aureus 25923 = format: cell-based, Staphylococcus aureus
# Method: as §1
# S. aureus 29213 = format: cell-based, Staphylococcus aureus
# Method: as §1
# E. faecalis 29212 = format: cell-based, Enterococcus faecalis
# Method: as §1
# S. pullorum C7913 = format: cell-based
# Method: as §1
"MIC, S. epidermidis 12228 (S. epidermidis 12228)","MIC, P. aeruginosa 27853 (P. aeruginosa 27853)","MIC, P. aeruginosa PAO1 (P. aeruginosa PAO1)","MIC, MRSA 43300 (MRSA 43300)","MIC, S. typhimurium 14028 (S. typhimurium 14028)","MIC, S. typhimurium 7731 (S. typhimurium 7731)","MIC, E. coli 078 (E. coli 078)","MIC, E. coli UB1005 (E. coli UB1005)","MIC, E. coli 25922 (E. coli 25922)","MIC, S. aureus 25923 (S. aureus 25923)","MIC, S. aureus 29213 (S. aureus 29213)","MIC, E. faecalis 29212 (E. faecalis 29212)","MIC, S. pullorum C7913 (S. pullorum C7913)",SMILES
256 µM,256 µM,256 µM,256 µM,256 µM,256 µM,256 µM,256 µM,256 µM,256 µM,256 µM,256 µM,256 µM,C[C@H](N)C(=O)N[C@@H](C)C(=O)N[C@@H](C)C(=O)N[C@@H](C)C(=O)N[C@@H](C)C(=O)N[C@H](CCCNC(=N)N)C(=O)N[C@@H](CCCNC(=N)N)C(=O)N[C@@H](CCCNC(=N)N)C(=O)N1CCC[C@H]1C(=O)O [Peptide A5] (H-AAAAA[dR]RRP-OH)
128 µM,256 µM,256 µM,128 µM,256 µM,256 µM,256 µM,256 µM,256 µM,256 µM,256 µM,256 µM,256 µM,CCCCCCCCCC(=O)N[C@H](CCCNC(=N)N)C(=O)N[C@@H](CCCNC(=N)N)C(=O)N[C@@H](CCCNC(=N)N)C(=O)N1CCC[C@H]1C(=O)O [Peptide C10] (Decanoyl-[dR]RRP-OH)
256 µM,256 µM,256 µM,256 µM,256 µM,256 µM,256 µM,256 µM,256 µM,256 µM,256 µM,256 µM,256 µM,N=C(N)NCCC[C@H](NC(=O)c1cccc2ccccc12)C(=O)N[C@H](CCCNC(=N)N)C(=O)N[C@@H](CCCNC(=N)N)C(=O)N1CCC[C@H]1C(=O)O [Nap] (1Naphthoyl-R[dR]RP-OH)
256 µM,256 µM,256 µM,256 µM,256 µM,256 µM,256 µM,256 µM,256 µM,256 µM,256 µM,256 µM,256 µM,C[C@H](N)C(=O)N[C@@H](C)C(=O)N[C@@H](C)C(=O)N[C@@H](C)C(=O)N[C@H](CCCNC(=N)N)C(=O)N[C@@H](CCCNC(=N)N)C(=O)N[C@@H](CCCNC(=N)N)C(=O)N1CCC[C@H]1C(=O)O [Peptide A4] (H-AAAA[dR]RRP-OH)
256 µM,256 µM,256 µM,256 µM,256 µM,256 µM,256 µM,256 µM,256 µM,256 µM,256 µM,256 µM,256 µM,C[C@H](N)C(=O)N[C@@H](C)C(=O)N[C@@H](C)C(=O)N[C@@H](C)C(=O)N[C@@H](C)C(=O)N[C@@H](C)C(=O)N[C@H](CCCNC(=N)N)C(=O)N[C@@H](CCCNC(=N)N)C(=O)N[C@@H](CCCNC(=N)N)C(=O)N1CCC[C@H]1C(=O)O [Peptide A6] (H-AAAAAA[dR]RRP-OH)
32 µM,64 µM,32 µM,16 µM,128 µM,64 µM,64 µM,128 µM,64 µM,32 µM,32 µM,32 µM,64 µM,CCCCCCCCCCCCCC(=O)N[C@H](CCCNC(=N)N)C(=O)N[C@@H](CCCNC(=N)N)C(=O)N[C@@H](CCCNC(=N)N)C(=O)N1CCC[C@H]1C(=O)O [Peptide C14] (Myristoyl-[dR]RRP-OH)
256 µM,256 µM,256 µM,256 µM,256 µM,256 µM,256 µM,256 µM,256 µM,256 µM,256 µM,256 µM,256 µM,C[C@H](N)C(=O)N[C@@H](C)C(=O)N[C@@H](C)C(=O)N[C@H](CCCNC(=N)N)C(=O)N[C@@H](CCCNC(=N)N)C(=O)N[C@@H](CCCNC(=N)N)C(=O)N1CCC[C@H]1C(=O)O [Peptide A3] (H-AAA[dR]RRP-OH)
32 µM,–,32 µM,32 µM,–,–,–,–,–,32 µM,32 µM,32 µM,256 µM,CCCCCCCCCCCCCCCC(=O)N[C@H](CCCNC(=N)N)C(=O)N[C@@H](CCCNC(=N)N)C(=O)N[C@@H](CCCNC(=N)N)C(=O)N1CCC[C@H]1C(=O)O [Peptide C16] (Palmitoyl-[dR]RRP-OH)
256 µM,256 µM,256 µM,256 µM,256 µM,256 µM,256 µM,256 µM,256 µM,256 µM,256 µM,256 µM,256 µM,CCCCCC(N)C(=O)NC(CCCCC)C(=O)NC(CCCCC)C(=O)N[C@H](CCCNC(=N)N)C(=O)N[C@@H](CCCNC(=N)N)C(=O)N[C@@H](CCCNC(=N)N)C(=O)N1CCC[C@H]1C(=O)O (stereo partly shown) [Peptide B3] (H-[ξAhp(2)][ξAhp(2)][ξAhp(2)][dR]RRP-OH; N-terminus assumed)
64 µM,128 µM,64 µM,32 µM,128 µM,128 µM,128 µM,256 µM,128 µM,64 µM,64 µM,64 µM,128 µM,CCCCCCCCCCCC(=O)N[C@H](CCCNC(=N)N)C(=O)N[C@@H](CCCNC(=N)N)C(=O)N[C@@H](CCCNC(=N)N)C(=O)N1CCC[C@H]1C(=O)O [Peptide C12] (Lauroyl-[dR]RRP-OH)
